The results in this text go back to patent publication US8383672B2, “Halogenated rhodamine derivatives and applications thereof” (Kiadis Pharma Canada Inc., priority 2001, dated 2013).

“Also recorded” adds a separate entry of the source.

In assay [1] the test system is S. epidermitis. Put plainly: Bacteriostatic activity of rhodamine derivatives against Staphilococcus epidermitis (photodynamic treatment, CFU/mL). The settings on record: for decrease of bacterial growth (bacteriostatic effect): without extrusion time. The assay is classed as cell-based. As to the method: Staphilococcus epidermitis
(§1) The protocol used for the bacteriosidic inactivation was performed as described in Brasseur and coll. with few modifications for bacteriosidic potential assessment (Brasseur et al, 2000).
Bacterial was grown overnight in Lubria Broth medium (LB), 100 μl (≈1×10^7 bacteria) of each bacterial suspension was added to 4 ml of LB medium, a small aliquot of the bacterial suspension was taken out for bacterial titer prior to treatment expressed as CFU/mL. […] Each mixture of bacteria rhodamine derivative was incubated at 37° C. for 40 minutes. The bacteria-rhodamine suspensions were then treated and exposed to a 514 nm wavelength light for 180 minutes, for a total output energy of 30 Joules/cm^2. Following the treatment time, the bacteria-rhodamine suspensions were centrifuged at 3000 g, resuspended in 4 ml and serial dilutions were performed for each duplicate. 10 μL of the diluted bacterial suspensions were plated, the plates incubated overnight at 37° C. The bacteriostatic effect is expressed by the number of CFU/mL.
The protocol used for the bacteriosidic inactivation was performed as described in Brasseur and coll. without modification for bacteriosidic potential assessment (Brasseur et al, 2000).
Bacterial was grown overnight in Lubria Broth medium (LB), 100 μl (≈1×10^7 bacteria) of each bacterial suspension added to 4 ml of LB medium. A small aliquot of the bacterial suspension was taken out for bacterial titer prior to treatment. […] Each mixture of bacteria rhodamine derivative was incubated at 37° C. for 40 minutes. The bacterial suspensions were then centrifuged at 3000 g for 10 minutes, resuspended in 4 mL LB media and incubated for 90 minutes at 37° C. to allow extrusion of the derivatives. The bacteria rhodamines suspensions were then treated and exposed to a 514 nm wavelength light for 180 minutes, for a total output energy of 30 Joules/cm^2. Following the treatment time, serial dilutions were performed for each duplicate and 10 μL of the diluted bacterial suspension was plated, the plates incubated overnight at 37° C. The bacteriostatic effect is expressed by the number of colony forming units/mL.

In assay [2] the test system is E. coli. Put plainly: Bacteriostatic activity of rhodamine derivatives against E. coli (photodynamic treatment, CFU/mL). The settings on record: for antibacterial activity against E. coli: 50 μM, 514 nm light 180 minutes, 30 Joules/cm^2; for log decrease of bacterial growth: E. coli, 50 uM, without extrusion time.
Method: Bacterial was grown overnight in Lubria Broth medium (LB), 100 μl (≈1×10^7 bacteria) of each bacterial suspension was added to 4 ml of LB medium, a small aliquot of the bacterial suspension was taken out for bacterial titer prior to treatment expressed as CFU/mL (colony forming units per mL). To the bacterial suspension was added the rhodamines derivatives, each derivative being tested in duplicate at a concentration of 50 μM. Each mixture of bacteria rhodamine derivative was incubated at 37° C. for 40 minutes. The bacteria-rhodamine suspensions were then treated and exposed to a 514 nm wavelength light for 180 minutes, for a total output energy of 30 Joules/cm^2. Following the treatment time, the bacteria-rhodamine suspensions were centrifuged at 3000 g, resuspended in 4 ml and serial dilutions were performed for each duplicate. 10 μL of the diluted bacterial suspensions were plated, the plates incubated overnight at 37° C. The bacteriostatic effect is expressed by the number of CFU/mL.
For assay [3], the system named is Cytomegalovirus. Put plainly: Antiviral assay against Cytomegalovirus in FS cells, with PDT treatment. Type of assay: cell-based, CMV (AD169). Conditions: 50 uM, followed by PDT treatment (180 minutes, 30 Joules/cm^2). As to the method:
The antiviral assay was performed as described in Lin, L (2001). Human diploid fibroblast, foreskin cells (FS), were used in this assay. […].
(§2) FS cells were grown to confluency in shell vials. At the time of infection 2.5-3.5×10^5 cells were growing on each coverslip. The CMV (AD169) stock solution containing 1 mL of virus were quickly thawed, seeded and diluted following 100 fold dilutions in MEM (Earle's salt) supplemented with L-glutamine and 2% FBS, total volume 30 ml.
(§3) The titer of the virus have been determined at 10^−2 (10^4 TCID50) plaque forming units (pfu) in 0.2 ml. Therefore 1 mL used in the PDT experiments represents […]. A M. O. I. of 0.4-0.5 of CMV was used throughout this experiment.
(§4) The plates containing no rhodamines derivatives were treated with light in parallel to the non-light treated plates. The concentration used throughout the assay for the rhodamines derivatives was maintained at 50 uM. Following the addition of the derivatives to the viral stock solution, the plates were placed into the Theralux L6.30 device and illuminated for 180 minutes with 210 rpm agitation. The energy output was measured to be 30 Joules/cm^2. The non-PDT plate was placed into a 37° C. incubator for the same amount of time. Following this treatment time, dilutions were made and inoculated with the FS cells under centrifugation (2000 g, 60 minutes). Following the centrifugation, the cells are incubated 60 minutes at 37° C., 5% CO2, then are washed with the culture media and incubated for 18-24 hours at 37° C. at 5% CO2. Inoculation volume of each dilution was 0.2 ml, the dilutions made were 10^−3 to 10^−5 in duplicate.
The cells were fixed, removed from the vials and stained with labelled FITC (fluorescein isothiocyanate) Mab to CMV immediate early antigen.
CMV viral particles were counted. One fluorescent virus particle (kidney-shaped) represents one plaque forming unit.

Assay [4] deals with Cytomegalovirus. Description: Antiviral assay against Cytomegalovirus in FS cells, without PDT treatment. The assay is classed as cell-based, CMV (AD169). Conditions: 50 uM. The procedure:
The antiviral assay was performed as described in Lin, L (2001). Human diploid fibroblast, foreskin cells (FS), were used in this assay.
as §2, §3
as §4, with “solution,” for “solution, the plates were placed into the Theralux L6.30 device and illuminated for 180 minutes with 210 rpm agitation. The energy output was measured to be 30 Joules/cm^2. The non-PDT plate was placed into a 37° C. incubator for the same amount of time. Following this treatment time,”, “duplicate. […]” for “duplicate.”
CMV viral particles were counted. […]

Assay [5] relates to S. typhimurium. Put plainly: Bacteriostatic activity of rhodamine derivatives against S. typhimurium (photodynamic treatment, CFU/mL). Type of assay: cell-based, Salmonella typhimurium. The settings on record: 50 μM; for antibacterial activity against S. typhimurium: 514 nm light 180 minutes, 30 Joules/cm^2; for log decrease of bacterial growth: S. typhimurium, without extrusion time. The procedure:
as §1
(§5) Bacterial was grown overnight in Lubria Broth medium (LB), 100 μl (≈×10^7 bacteria) of each bacterial suspension was added to 4 ml of LB medium, a small aliquot of the bacterial suspension was taken out for bacterial titer prior to treatment expressed as CFU/mL. To the bacterial suspension was added the rhodamines derivatives, each derivative being tested in duplicate at a concentration of 50 μM. Each mixture of bacteria rhodamine derivative was incubated at 37° C. for 40 minutes. The bacteria-rhodamine suspensions were then treated and exposed to a 514 nm wavelength light for 180 minutes, for a total output energy of 30 Joules/cm^2. Following the treatment time, the bacteria-rhodamine suspensions were centrifuged at 3000 g, resuspended in 4 ml and serial dilutions were performed for each duplicate. 10 μL of the diluted bacterial suspensions were plated, the plates incubated overnight at 37° C. The bacteriostatic effect is expressed by the number of CFU/mL.

The subject of assay [6] is P. aeruginosa. Put plainly: Bacteriostatic activity of rhodamine derivatives against P. aeruginosa (photodynamic treatment, CFU/mL). The assay is classed as cell-based, Pseudomonas aeruginosa. Conditions: 50 μM. The procedure: as §1
as §5, with “(≈1×10^7” for “(≈×10^7”

The mark [7] stands for this setting: 50 μM, 514 nm light 180 minutes, 30 Joules/cm^2.

Consider `CCN=c1c(C)cc2c(-c3ccccc3C(=O)OCC)c3cc(C)c(NCC)c(Br)c3oc-2c1Br` [HA-X-171, 4,5-dibromorhodamine 6G], for which the “antibacterial activity against S. epidermitis” value in assay [1] (10 μM, 514 nm light 180 minutes, 30 Joules/cm^2) was “showed antibacterial activity”. The “decrease of bacterial growth (bacteriostatic effect)” value (from here on “decrease … (bacteriostatic effect)”) in assay [1] (S. epidermitis, 10 μM) is on record as 6,5 logs. Moreover, in assay [2], the “antibacterial activity against E. coli” value is reported as “showed antibacterial activity” and the “log decrease of bacterial growth” value worked out at 3.7 logs. Besides, in assay [3], the “antiviral activity against Cytomegalovirus” value is reported as “possess antiviral activity”.
Consider `COCCOCCOC(=O)c1ccccc1-c1c2ccc(=N)c(Br)c-2oc2c(Br)c(N)ccc12` [HA-X-44, 4,5-dibromorhodamine 110 2-(2-methoxyethoxy)ethyl esther], for which the “antibacterial activity (section Staphilococcus epidermitis)” value in assay [1] (setting [7]) is “showed antibacterial activity”. In addition, the “decrease … (bacteriostatic effect)” value in assay [1] (S. epidermitis, 50 μM) is reported as “eradicates bacterial growth”. In assay [4], the “antiviral activity against Cytomegalovirus (infectivity)” value is “inhibit cytometalovirus infectivity; also recorded: did not need PDT treatment to possess antiviral activity”. In addition, in assay [2], the “antibacterial activity against E. coli” value is given as “showed antibacterial activity” and the “log decrease of bacterial growth” value was “eradication”. In assay [5], the “antibacterial activity against S. typhimurium” value is “showed antibacterial activity” and the “log decrease of bacterial growth” value is given as 5 logs.
On to “acetate salt of 2,7-dibromorhodamine B methyl ester [HA-X-164]”, for which, in assay [1] (setting [7]), the “antibacterial activity (section Staphilococcus epidermitis)” value was “showed antibacterial activity”. Besides, the “decrease … (bacteriostatic effect)” value in assay [1] (S. epidermitis, 50 μM) came out at 3 logs. Also, in assay [2], the “antibacterial activity against E. coli” value was “showed antibacterial activity” and the “log decrease of bacterial growth” value is reported as 0.25 logs. In addition, in assay [5], the “antibacterial activity against S. typhimurium” value is reported as “showed antibacterial activity” and the “log decrease of bacterial growth” value was 0.3 logs. In addition, the “antiviral activity against Cytomegalovirus” value in assay [3] is on record as “possess antiviral activity”.
`CCN(CC)c1ccc2c(-c3ccccc3C(=O)OCCCBr)c3ccc(=[N+](CC)CC)cc-3oc2c1` [HA-VIII-92, rhodamine B 3-bromopropyl ester]: the “antiviral activity against Cytomegalovirus” value in assay [3] was “possess antiviral activity”.
Take `COC(=O)c1ccccc1-c1c2ccc(=N)c(Br)c-2oc2c(Br)c(N)ccc12.Cl` [TH9402, 4,5-dibromorhodamine 123 (2-(4,5-dibromo-6-amino-3-imino-3H-xanthen-9-yl)-benzoic acid methyl ester hydrochloride), reference compound]: in assay [1] (setting [7]), the “antibacterial activity (section Staphilococcus epidermitis)” value is listed as “showed antibacterial activity”. Besides, in assay [1] (S. epidermitis, 50 μM), the “decrease … (bacteriostatic effect)” value is given as “inhibits bacterial growth”. Further, the “antiviral activity against Cytomegalovirus (infectivity)” value in assay [4] (hydrochloride) is given as “inhibit cytometalovirus infectivity; also recorded: did not need PDT treatment to possess antiviral activity”. For the same compound, in assay [2], the “antibacterial activity against E. coli” value is “showed antibacterial activity” and the “log decrease of bacterial growth” value is 7 logs. Further, the “antibacterial activity against P. aeruginosa” value in assay [6] (514 nm light 180 minutes, 30 Joules/cm^2) is on record as “showed antibacterial activity”. The “log decrease of bacterial growth” value in assay [6] (P. aeruginosa, without extrusion time) was found to be 2 logs. Also, in assay [5], the “antibacterial activity against S. typhimurium” value is reported as “showed antibacterial activity” and the “log decrease of bacterial growth” value stood at 6.7 logs.
Turning to “acetate salt of 2,7-dibromorhodamine B hexyl ester [HA-X-149]”, the “antibacterial activity (section Staphilococcus epidermitis)” value in assay [1] (setting [7]) is on record as “showed antibacterial activity”. Moreover, the “decrease … (bacteriostatic effect)” value in assay [1] (S. epidermitis, 50 μM) is given as 4,5 logs. Also, the “antiviral activity against Cytomegalovirus” value in assay [3] is listed as “possess antiviral activity”.
For `COC(=O)c1cc(Cl)c(Cl)cc1-c1c2ccc(=[N+](C)C)cc-2oc2cc(N(C)C)ccc12.[Cl-]` [HA-X-40, 2′-(6-dimethylamino-3-dimethylimino-3H-xanthen-9-yl) 4′,5′-dichloro-benzoic acid methyl ester hydrochloride], the “antibacterial activity (section Staphilococcus epidermitis)” value in assay [1] (setting [7]) is recorded as “showed antibacterial activity”. The “antibacterial activity against S. epidermitis” value in assay [1] (50 μM, extrusion time of 90 minutes prior to radiation treatment) is listed as “showed antibacterial activity”. Moreover, in assay [1] (S. epidermitis, 50 μM, with 90 minutes extrusion time), the “effect on bacterial growth” value was “eradicates bacterial growth”. In addition, the “decrease … (bacteriostatic effect)” value in assay [1] (S. epidermitis, 50 μM) turned out to be 2 logs. Also, the “antiviral activity against Cytomegalovirus” value in assay [3] is “possess antiviral activity”.
